Read-outs that look alike come from different tables or passages of the source.
Experiments:
[1] = target: recombinant human Mcl-1 (residues 171-327) / Bim interaction (Homo sapiens (Human), UniProt Q07820); experiment: biochemical; format: binding; conditions: TR-FRET, Mcl-1(171-327) / biotin-Bim (51-76); read-out: Mcl-1 HTRF IC50
[2] = test system: human multiple myeloma cell line, OPM-2; experiment: Cell viability assay (OPM-2 10 FBS), CellTiter-Glo; format: cell-based
Procedure, shortened: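 Cells were seeded at 3000 cells/well in RPMI 1640 with 10% FBS and exposed to serially diluted compounds for 16 h at 37 °C, 5% CO2.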

[3] = Homo sapiens, OPM-2, 16 h, read-out: OPM-2 10% FBS IC50 IP, OPM-2 cells, 10% FBS, 16 h, CellTiter-Glo

Chain of recombinant human Mcl-1 (residues 171-327) / Bim interaction (Q07820 171-327): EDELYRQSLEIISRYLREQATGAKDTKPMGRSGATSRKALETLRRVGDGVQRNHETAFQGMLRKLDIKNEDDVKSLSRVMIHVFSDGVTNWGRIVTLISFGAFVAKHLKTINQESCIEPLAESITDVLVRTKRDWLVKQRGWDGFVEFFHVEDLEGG

Row | Compound | IC50 [1] | IC50 [2, 3] | IC50 ([2]; read-out: OPM-2 10% FBS IC50 IP, OPM-2 cells, 10% FBS, 16 h, CellTiter-Glo)
1 | COCC1(N(C)C(=O)C[C@]2(OC)/C=C/C[C@H](C)[C@@H](C)S(=O)(=O)NC(=O)c3ccc4c(c3)N(C[C@@H]3CC[C@H]32)C[C@@]2(CCCc3cc(Cl)ccc32)CO4)CC1 [Example 100396, 2-((1S,3′R,6′R,7′S,8′E,11′S,12′R)-6-chloro-7′-methoxy-11′,12′-dimethyl-13′,13′-dioxido-15′-oxo-3,4-dihydro-2H-spiro[naphthalene-1,22′-[20]oxa[13]thia[1,14]diazatetracyclo [14.7.2.0~3,6~.0~19,24~]pentacosa[8,16,18,24]tetraen]-7′-yl)-N-(1-(methoxymethyl)cyclopropyl)-N-methylacetamide] | 0.272 nM | 1470 nM | –
2 | C=CC[C@]1(OC)/C=C/C[C@H](C)[C@@H](C)S(=O)(=O)NC(=O)c2ccc3c(c2)N(C[C@@H]2CC[C@H]21)C[C@@]1(CCCc2cc(Cl)ccc21)CO3 [Example 100397, (1S,3′R,6′R,7′S,8′E,11′S,12′R)-6-chloro-7′-methoxy-11′,12′-dimethyl-7′-(2-propen-1-yl)-3,4-dihydro-2H,15′H-spiro[naphthalene-1,22′-[20]oxa[13]thia[1,14]diazatetracyclo [14.7.2.0~3,6~.0~19,24~]pentacosa[8,16,18,24]tetraen]-15′-one 13′,13′-dioxide] | 0.198 nM | 404 nM | –
3 | COC[C@]1(OC)/C=C/C[C@H](C)[C@@H](C)S(=O)(=O)NC(=O)c2ccc3c(c2)N(C[C@@H]2CC[C@H]21)C[C@@]1(CCCc2cc(Cl)ccc21)CO3 [Example 100401, (1S,3′R,6′R,7′S,8′E,11′S,12′R)-6-chloro-7′-methoxy-7′-(methoxymethyl)-11′,12′-dimethyl-3,4-dihydro-2H,15′H-spiro[naphthalene-1,22′-[20]oxa[13]thia[1,14]diazatetracyclo [14.7.2.0~3,6~.0~19,24~]pentacosa[8,16,18,24]tetraen]-15′-one 13′,13′-dioxide] | 1.8 nM | 8390 nM | –
4 | C[C@@H]1[C@@H](C)C/C=C/[C@](O)(c2ccc(F)cn2)[C@@H]2CC[C@H]2CN2C[C@@]3(CCCc4cc(Cl)ccc43)COc3ccc(cc32)C(=O)NS1(=O)=O [Example 100403, (1S,3′R,6′R,7′R,8′E,11′S,12′R)-6-chloro-7′-(5-fluoro-2-pyridinyl)-7′-hydroxy-11′,12′-dimethyl-3,4-dihydro-2H,15′H-spiro[naphthalene-1,22′-[20]oxa[13]thia[1,14]diazatetracyclo [14.7.2.0~3,6~.0~19,24~]pentacosa[8,16,18,24]tetraen]-15′-one 13′,13′-dioxide] | 0.226 nM | 390 nM | –
5 | CO[C@@]1(C(C)(C)O)/C=C/C[C@H](C)[C@@H](C)S(=O)(=O)NC(=O)c2ccc3c(c2)N(C[C@@H]2CC[C@H]21)C[C@@]1(CCCc2cc(Cl)ccc21)CO3 [Example 100404, (1S,3′R,6′R,7′S,8′E,11′S,12′R)-6-chloro-7′-(2-hydroxy-2-propanyl)-7′-methoxy-11′,12′-dimethyl-3,4-dihydro-2H,15′H-spiro[naphthalene-1,22′-[20]oxa[13]thia[1,14]diazatetracyclo [14.7.2.0~3,6~.0~19,24~]pentacosa[8,16,18,24]tetraen]-15′-one 13′,13′-dioxide] | 2.55 nM | 8150 nM | –
6 | CO[C@@]1(CC(=O)N(C)C2CCCC2)/C=C/C[C@H](C)[C@@H](C)S(=O)(=O)NC(=O)c2ccc3c(c2)N(C[C@@H]2CC[C@H]21)C[C@@]1(CCCc2cc(Cl)ccc21)CO3 [Example 100405, 2-((1S,3′R,6′R,7′S,8′E,11′S,12′R)-6-chloro-7′-methoxy-11′,12′-dimethyl-13′,13′-dioxido-15′-oxo-3,4-dihydro-2H-spiro[naphthalene-1,22′-[20]oxa[13]thia[1,14]diazatetracyclo [14.7.2.0~3,6~.0~19,24~]pentacosa[8,16,18,24]tetraen]-7′-yl)-N-cyclopentyl-N-methylacetamide] | 0.545 nM | 1120 nM | –
7 | Cc1ccc([C@@]2(O)/C=C/C[C@H](C)[C@@H](C)S(=O)(=O)NC(=O)c3ccc4c(c3)N(C[C@@H]3CC[C@H]32)C[C@@]2(CCCc3cc(Cl)ccc32)CO4)cn1 [Example 100407, (1S,3′R,6′R,7′R,8′E,11′S,12′R)-6-chloro-7′-hydroxy-11′,12′-dimethyl-7′-(6-methyl-3-pyridinyl)-3,4-dihydro-2H,15′H-spiro[naphthalene-1,22′-[20]oxa[13]thia[1,14]diazatetracyclo [14.7.2.0~3,6~.0~19,24~]pentacosa[8,16,18,24]tetraen]-15′-one 13′,13′-dioxide] | 0.278 nM | 516 nM | –
8 | CO[C@]1(C#CCN2CCOCC2)/C=C/C[C@H](C)[C@@H](C)S(=O)(=O)NC(=O)c2ccc3c(c2)N(C[C@@H]2CC[C@H]21)C[C@@]1(CCCc2cc(Cl)ccc21)CO3 [Example 100409, (1S,3′R,6′R,7′R,8′E,11′S,12′R)-6-chloro-7′-methoxy-11′,12′-dimethyl-7′-(3-(4-morpholinyl)-1-propyn-1-yl)-3,4-dihydro-2H,15′H-spiro[naphthalene-1,22′-[20]oxa[13]thia[1,14]diazatetracyclo [14.7.2.0~3,6~.0~19,24~]pentacosa[8,16,18,24]tetraen]-15′-one 13′,13′-dioxide] | 0.124 nM | – | 206 nM
9 | C[C@@H]1[C@@H](C)C/C=C/[C@](O)(c2cncnc2)[C@@H]2CC[C@H]2CN2C[C@@]3(CCCc4cc(Cl)ccc43)COc3ccc(cc32)C(=O)NS1(=O)=O [Example 100410, (1S,3′R,6′R,7′R,8′E,11′S,12′R)-6-chloro-7′-hydroxy-11′,12′-dimethyl-7′-(5-pyrimidinyl)-3,4-dihydro-2H,15′H-spiro[naphthalene-1,22′-[20]oxa[13]thia[1,14]diazatetracyclo [14.7.2.0~3,6~.0~19,24~]pentacosa[8,16,18,24]tetraen]-15′-one 13′,13′-dioxide] | 0.127 nM | 297 nM | –
10 | CO[C@@]1(CC(=O)N2CCN3CCOC[C@H]3C2)/C=C/C[C@H](C)[C@@H](C)S(=O)(=O)NC(=O)c2ccc3c(c2)N(C[C@@H]2CC[C@H]21)C[C@@]1(CCCc2cc(Cl)ccc21)CO3 [Example 100411, (1S,3′R,6′R,7′S,8′E,11′S,12′R)-6-chloro-7′-(2-((9aR)-hexahydropyrazino[2,1-c][1,4]oxazin-8(1H)-yl)-2-oxoethyl)-7′-methoxy-11′,12′-dimethyl-3,4-dihydro-2H,15′H-spiro[naphthalene-1,22′-[20]oxa[13]thia[1,14]diazatetracyclo [14.7.2.0~3,6~.0~19,24~]pentacosa[8,16,18,24]tetraen]-15′-one 13′,13′-dioxide] | 0.584 nM | 2100 nM | –
11 | CO[C@@]1(CCN2CCCC2)/C=C/C[C@H](C)[C@@H](C)S(=O)(=O)NC(=O)c2ccc3c(c2)N(C[C@@H]2CC[C@H]21)C[C@@]1(CCCc2cc(Cl)ccc21)CO3 [Example 100412, (1S,3′R,6′R,7′S,8′E,11′S,12′R)-6-chloro-7′-methoxy-11′,12′-dimethyl-7′-(2-(1-pyrrolidinyl)ethyl)-3,4-dihydro-2H,15′H-spiro[naphthalene-1,22′-[20]oxa[13]thia[1,14]diazatetracyclo [14.7.2.0~3,6~.0~19,24~]pentacosa[8,16,18,24]tetraen]-15′-one 13′,13′-dioxide] | 0.097 nM | 249 nM | –
12 | C[C@@H]1[C@@H](C)C/C=C/[C@](O)(C(F)(F)C(=O)N(C)C)[C@@H]2CC[C@H]2CN2C[C@@]3(CCCc4cc(Cl)ccc43)COc3ccc(cc32)C(=O)NS1(=O)=O [Example 100413, 2-((1S,3′R,6′R,7′R,8′E,11′S,12′R)-6-chloro-7′-hydroxy-11′,12′-dimethyl-13′,13′-dioxido-15′-oxo-3,4-dihydro-2H-spiro[naphthalene-1,22′-[20]oxa[13]thia[1,14]diazatetracyclo [14.7.2.0~3,6~.0~19,24~]pentacosa[8,16,18,24]tetraen]-7′-yl)-2,2-difluoro-N,N-dimethylacetamide] | 0.228 nM | 556 nM | –
13 | CCOC(=O)C(F)(F)[C@@]1(O)/C=C/C[C@H](C)[C@@H](C)S(=O)(=O)NC(=O)c2ccc3c(c2)N(C[C@@H]2CC[C@H]21)C[C@@]1(CCCc2cc(Cl)ccc21)CO3 [Example 100414, ethyl ((1S,3′R,6′R,7′R,8′E,11′S,12′R)-6-chloro-7′-hydroxy-11′,12′-dimethyl-13′,13′-dioxido-15′-oxo-3,4-dihydro-2H-spiro[naphthalene-1,22′-[20]oxa[13]thia[1,14]diazatetracyclo [14.7.2.0~3,6~.0~19,24~]pentacosa[8,16,18,24]tetraen]-7′-yl)(difluoro)acetate] | 0.626 nM | 1270 nM | –
14 | CO[C@]1(CCN2CCN(C)C(=O)C2)/C=C/C[C@H](C)[C@@H](C)S(=O)(=O)NC(=O)c2ccc3c(c2)N(C[C@@H]2CC[C@H]21)C[C@@]1(CCCc2cc(Cl)ccc21)CO3 [Example 100415, (1S,3′R,6′R,7′R,8′E,11′S,12′R)-6-chloro-7′-methoxy-11′,12′-dimethyl-7′-(2-(4-methyl-3-oxo-1-piperazinyl)ethyl)-3,4-dihydro-2H,15′H-spiro[naphthalene-1,22′-[20]oxa[13]thia[1,14]diazatetracyclo [14.7.2.0~3,6~.0~19,24~]pentacosa[8,16,18,24]tetraen]-15′-one 13′,13′-dioxide] | 1.95 nM | 2280 nM | –
15 | CCOC(=O)C(F)(F)[C@]1(O)/C=C/C[C@H](C)[C@@H](C)S(=O)(=O)NC(=O)c2ccc3c(c2)N(C[C@@H]2CC[C@H]21)C[C@@]1(CCCc2cc(Cl)ccc21)CO3 [Example 100416, ethyl ((1S,3′R,6′R,7′S,8′E,11′S,12′R)-6-chloro-7′-hydroxy-11′,12′-dimethyl-13′,13′-dioxido-15′-oxo-3,4-dihydro-2H-spiro[naphthalene-1,22′-[20]oxa[13]thia[1,14]diazatetracyclo [14.7.2.0~3,6~.0~19,24~]pentacosa[8,16,18,24]tetraen]-7′-yl)(difluoro)acetate] | 0.092 nM | 86 nM | –

From patent US10821115B2, “Compounds that inhibit Mcl-1 protein” (priority 2017, dated 2020)
